One data set has as its target hDYRK1A (Homo sapiens, UniProt Q13627). The data set can be described thus: DYRK1A Human CMGC Kinase Enzymatic Radiometric Assay [Km ATP]. Type of data set: biochemical.
The target in a further data set is hCLK1 (Homo sapiens, UniProt P49759). The data set can be described thus: CLK1 Human CMGC Kinase Enzymatic Radiometric Assay [Km ATP]. Type of data set: biochemical.
Data set [1] can be described thus: In vitro DPPH radical scavenging assay. As to conditions: methanol, 37 °C, 40 min, absorbance at 517 nm. As to the method:
Finally, the aptitude of 1p to act as a free radical scavenger was assessed using the rapid, inexpensive and widely used DPPH^• (2,2-diphenyl-1-picrylhydrazyl) scavenging method. Dark purple DPPH^• is a stable free radical that can accept an electron or hydrogen to become a stable diamagnetic molecule with the loss of violet color. […] Thus, this novel class of hDYRK1A/hCLK1 inhibitors are all the more interesting that they may also potentially display an additional antioxidant activity to combat oxidative stress in AD.
Figure 1. In vitro stability of 1p in various non-oxidazing and oxidazing media.
III – In vitro DPPH radical scavenging assay
DPPH radical scavenging activity was determined according to the method described by Blois.5 0.5 mL of 0.1 mM DPPH radical solution in methanol was mixed with 1.5 mL of various concentrations in methanol of 1p. The mixture was then thoroughly vortexed for 5s and each antioxidant-DPPH radical reaction mixture is kept in the test tubes in the dark at 37 °C for 40 min (time point by which all reactions should have reached steady state) and transferred to a cuvette for absorbance measurement at 517 nm. For the baseline control, 1.5 mL of methanol was used. […] Percentage of inhibition was calculated using the equation [(A0−A1)/A0] × 100 where A0 was the absorbance of the control and A1 was the absorbance in the presence of the compound. […]
In general terms: The DPPH test is a chemical assay of radical scavenging.

Data set [2] can be described thus: In vitro stability/oxidation of 1p to 2p in PBS, NAD+, H2O2 and riboflavin solutions (HPLC-UV). Type of data set: physicochemical. As to conditions: 25 μM 1p.
The next data set in a line: in vitro. As to conditions: PAMPA, pH 7.4. Background: PAMPA measures passive passage across an artificial lipid membrane.
Data set [3] in a line: Solubility of 1p in PBS (HPLC). As to conditions: aqueous buffer, kinetic from dmso stock; PBS pH 7.4, 24 h at 20 °C; read-out: Experimental solubility in PBS. Type of data set: physicochemical.
The subject of a further data set is CLK1. More on the design: method as in PMID 20981014, PMID 15010457. As to conditions: cited from earlier work.
The next data set deals with DYRK1A. As to conditions: cited from earlier work.
[4] abbreviates: radiometric assay, Km ATP, read-out: IC50 hDYRK1A.
Where [5] appears, read: radiometric assay, Km ATP, read-out: IC50 hCLK1.
Where [6] appears, read: compared with N-methyl dihydroquinoline 1h.
Where [7] appears, read: quinolinium salt and quinoline intermediates, read-out: IC50 hDYRK1A (synthetic intermediates).
Where [8] appears, read: quinolinium salt and quinoline intermediates, read-out: IC50 hCLK1 (synthetic intermediates).

Several values for one entry are separate records, joined by “and”; a condition that tells them apart may be missing. Identical values can stand only once. Like-named read-outs stand apart in the source and are kept apart here.

Chain of hCLK1 (P49759 whole entry): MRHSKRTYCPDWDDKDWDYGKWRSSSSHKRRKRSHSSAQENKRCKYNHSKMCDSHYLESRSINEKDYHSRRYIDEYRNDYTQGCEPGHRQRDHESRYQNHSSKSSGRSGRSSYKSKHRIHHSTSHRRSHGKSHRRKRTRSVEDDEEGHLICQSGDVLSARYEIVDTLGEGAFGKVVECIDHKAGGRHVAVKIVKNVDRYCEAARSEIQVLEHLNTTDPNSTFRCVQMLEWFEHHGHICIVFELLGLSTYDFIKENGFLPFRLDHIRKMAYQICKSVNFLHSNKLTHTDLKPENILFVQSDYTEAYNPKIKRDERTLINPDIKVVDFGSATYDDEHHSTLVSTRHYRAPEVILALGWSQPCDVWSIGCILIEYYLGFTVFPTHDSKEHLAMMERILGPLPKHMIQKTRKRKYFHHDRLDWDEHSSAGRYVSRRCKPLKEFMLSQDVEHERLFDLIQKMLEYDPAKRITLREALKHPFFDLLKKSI

As usually defined, the melting point is the temperature, or range, at which the solid turns liquid. For `CCC[n+]1cc(C(C)=O)cc2ccc(OC)cc21.[Br-]`, the melting point was 183 to 184 °C.

The term IC50 denotes the midpoint of a concentration-inhibition curve. With `CC(=O)C1=CN(C)c2ccccc2C1` [Compound 1a, 1-(1-Methyl-1,4-dihydroquinolin-3-yl)ethanone], the IC50 on hDYRK1A (setting [4]) and on hCLK1 (setting [5]) was over 10 µM in each case.

On to `CC(=O)C1=CN(C)c2cc(C(F)(F)F)ccc2C1` [Compound 1b, 1-(1-Methyl-7-(trifluoromethyl)-1,4-dihydroquinolin-3-yl)ethanone], for which the melting point lay in the range of 141 to 142 °C. Besides, the IC50 at hDYRK1A (setting [4]) was over 10 µM. Besides, the IC50 on hCLK1 (setting [5]) was over 10 µM.

Compound `CC(=O)C1=CN(C)c2cc(N(C)C)ccc2C1` [Compound 1c, 1-(7-(Dimethylamino)-1-methyl-1,4-dihydroquinolin-3-yl)ethanone] returned a melting point of 126 to 127 °C. Further, the IC50 on hDYRK1A (setting [4]) was over 10 µM. Besides, the IC50 on hCLK1 (setting [5]) is over 10 µM.

As to `CC(=O)C1=CN(C)c2cc(Br)ccc2C1` [Compound 1d, 1-(7-Bromo-1-methyl-1,4-dihydroquinolin-3-yl)ethanone], the melting point lay within 179 to 180 °C. Also, at hDYRK1A (setting [4]), the IC50 was over 10 µM. In addition, on hCLK1 (setting [5]), the IC50 was over 10 µM.

The compound `CC(=O)C1=CN(C)c2ccc(Cl)cc2C1` [Compound 1e, 1-(6-Chloro-1-methyl-1,4-dihydroquinolin-3-yl)ethanone] showed a melting point of 124 to 125 °C. Further, the IC50 at hDYRK1A (setting [4]) is over 10 µM. The IC50 on hCLK1 (setting [5]) is over 10 µM.

Take `COc1cc2c(cc1OC)N(C)C=C(C(C)=O)C2` [Compound 1f, 1-(6,7-Dimethoxy-1-methyl-1,4-dihydroquinolin-3-yl)ethanone]: the melting point was 235 to 236 °C. For the same compound, at hDYRK1A (setting [4]), the IC50 is over 10 µM. The IC50 on hCLK1 (setting [5]) is over 10 µM.

Regarding `CC(=O)C1=CN(C)c2cc3c(cc2C1)OCO3` [Compound 1g, 1-(5-Methyl-5,8-dihydro-[1,3]dioxolo[4,5-g]quinolin-7-yl)ethanone], the melting point was in the range of 152 to 153 °C. Further, the IC50 at hDYRK1A (setting [4]) is over 10 µM. Also, the IC50 at hCLK1 (setting [5]) was over 10 µM.

`COc1ccc2c(c1)N(C)C=C(C(C)=O)C2` [Compound 1h, 1-(7-Methoxy-1-methyl-1,4-dihydroquinolin-3-yl)ethanone] gave a melting point of 99 to 100 °C. In addition, at hDYRK1A (setting [4]), the IC50 turned out to be 0.385 ± 0.13 µM. Also, the IC50 at hCLK1 (setting [5]) is 0.377 ± 0.158 µM.

The compound `COc1ccc2c(c1)N(C)C=C(C#N)C2` [Compound 1i, 7-Methoxy-1-methyl-1,4-dihydroquinoline-3-carbonitrile] displayed a melting point of 127 to 128 °C. The IC50 on hDYRK1A (setting [4]) was over 10 µM. Moreover, on hCLK1 (setting [5]), the IC50 was over 10 µM.

Compound `COC(=O)C1=CN(C)c2cc(OC)ccc2C1` [Compound 1j, Methyl 7-methoxy-1-methyl-1,4-dihydroquinoline-3-carboxylate] yielded a melting point of 95 to 96 °C. In addition, the IC50 at hDYRK1A (setting [4]) is over 10 µM. Besides, the IC50 at hCLK1 (setting [5]) is 1.46 ± 0.253 µM.

In the case of `CCOC(=O)C1=CN(C)c2cc(OC)ccc2C1` [Compound 1k, Ethyl 7-methoxy-1-methyl-1,4-dihydroquinoline-3-carboxylate], the melting point is 93 to 94 °C. Besides, the IC50 at hDYRK1A (setting [4]) was over 10 µM. For the same compound, at hCLK1 (setting [5]), the IC50 amounted to 3.16 ± 0.525 µM.

As to `COc1ccc2c(c1)N(C)C=C(C(=O)N(C)C)C2` [Compound 1l, 7-Methoxy-N,N,1-trimethyl-1,4-dihydroquinoline-3-carboxamide], the melting point fell in the range of 219 to 220 °C. In addition, at hDYRK1A (setting [4]), the half-inhibitory concentration (IC50) is over 10 µM. Besides, the IC50 at hCLK1 (setting [5]) was over 10 µM.

For the compound `COc1ccc2c(c1)N(C)C=C(C(=O)N(C)OC)C2` [Compound 1m, N,7-Dimethoxy-N,1-dimethyl-1,4-dihydroquinoline-3-carboxamide], the IC50 at hDYRK1A (setting [4]) and at hCLK1 (setting [5]) was over 10 µM in each case.

Regarding `COc1ccc2c(c1)N(Cc1ccccc1)C=C(C(C)=O)C2` [Compound 1n, 1-(1-Benzyl-7-methoxy-1,4-dihydroquinolin-3-yl)ethanone], the melting point was 129 to 130 °C. Further, on hDYRK1A (setting [4]), the IC50 turned out to be 3.02 ± 0.15 µM. Besides, on hCLK1 (setting [5]), the half-maximal inhibitory concentration (IC50) was 0.595 ± 0.063 µM.

With `COc1ccc2c(c1)N(CCc1ccccc1)C=C(C(C)=O)C2` [Compound 1o, 1-(7-Methoxy-1-phenethyl-1,4-dihydroquinolin-3-yl)ethanone], the melting point was in the range of 92 to 93 °C. The IC50 at hDYRK1A (setting [4]) amounted to 1.11 ± 0.203 µM. In addition, the IC50 at hCLK1 (setting [5]) was found to be 0.122 ± 0.012 µM.

One may read the EC50 as the concentration that produces a half-maximal response. What is called Papp is a coefficient for how fast a substance crosses the barrier. A low value points to slow passage. For orientation: solubility means how much of the substance goes into solution per volume. The compound `CCCN1C=C(C(C)=O)Cc2ccc(OC)cc21` [Compound 1p, 1-(7-Methoxy-1-propyl-1,4-dihydroquinolin-3-yl)ethanone] showed a melting point of 98 to 99 °C. In addition, the EC50 in data set [1] was determined as 128 µM. Also, the “fold more potent than 1h toward hDYRK1A” value on hDYRK1A (setting [6]) was determined as 2.5 fold. For the same compound, on hDYRK1A (setting [4]), the concentration for half-maximal inhibition (IC50) was 0.153 ± 0.044 µM. In addition, the “% formed 2p after incubation at 37 °C” value in data set [2] (0.1% H2O2 in PBS, after 3.5 h) came to 13%. For the same compound, the “% formed 2p after incubation at 37 °C” value in data set [2] (0.1% H2O2 in PBS, after 24 h) is reported as 53%. In addition, the “% formed 2p after incubation at 37 °C” value in data set [2] (0.1% riboflavin in PBS, after 3.5 h (in less than 3.5 h)) is recorded as 100%. Also, in data set [2] (0.2% NAD+ in PBS, after 3.5 h), the “% formed 2p after incubation at 37 °C” value is given as 5%. The “% formed 2p after incubation at 37 °C” value in data set [2] (0.2% NAD+ in PBS, after 24 h) is on record as 16%. In data set [2] (2% NAD+ in PBS, after 3.5 h), the “% formed 2p after incubation at 37 °C” value is given as 24%. The “% formed 2p after incubation at 37 °C” value in data set [2] (2% NAD+ in PBS, after 24 h) amounted to 77%. Moreover, the “% formed 2p after incubation at 37 °C” value in [2] (PBS pH 7.4, after 3.5 h) came out at 3%. Further, the “% formed 2p after incubation at 37 °C” value in data set [2] (PBS pH 7.4, after 24 h) was found to be 8%. In “in vitro”, this compound showed a Papp at 4 h, 100 µM of 20 ± 0.9 ×10⁻⁶ cm/s. Moreover, in data set [3], the solubility at 24 h was 600 µM and 147 µg/mL. On hCLK1 (setting [6]), the “fold more potent than 1h toward hCLK1” value is reported as 8 fold. Besides, the IC50 on hCLK1 (setting [5]) is 0.047 ± 0.013 µM.

In turn, `COc1ccc2cc(C(C)=O)c[n+](C)c2c1.[I-]` [Compound 2h, 3-Acetyl-7-methoxy-1-methylquinolin-1-ium iodide] returned a melting point of 223 to 224 °C. Moreover, at hDYRK1A (setting [7]), the IC50 was over 10 µM. Further, on hCLK1 (setting [8]), the IC50 was over 10 µM.

On to `COc1ccc2cc(C(C)=O)cnc2c1` [Compound 6h, 3-Acetyl-7-methoxyquinoline], for which the melting point fell in the range of 129 to 130 °C. In addition, the IC50 on hDYRK1A (setting [7]) was over 10 µM. The IC50 at hCLK1 (setting [8]) was over 10 µM.

For `CCN1/C(=C/C(C)=O)Sc2ccc(O)cc21` [INDY, (Z)-1-(3-Ethyl-5-hydroxy-2(3H)-benzothiazolylidene)-2-propanone], in the data set on CLK1 (at 10 μM), the CLK1 % inhibition was 99%.

Turning to `CCN1/C(=C/C(C)=O)Sc2ccc(OC(C)=O)cc21` [ProINDY], in the data set on DYRK1A (at 10 μM), the DYRK1A % inhibition is on record as 26.1%.

`CCN1/C(=C/C(C)=O)Sc2ccc(OC)cc21` [TG003]: the IC50 was […] with CLK1 and […] in the data set with DYRK1A.

These data come from paper PMC9822041 (Molecules, 2022).
